The source of these data is patent publication US10947222B2, “Indole derivatives useful as inhibitors of diacylglyceride O-acyltransferase 2” (Merck Sharp & Dohme Corp., priority 2016, dated 2021).

The structures appear in SMILES notation.

Sequence of human DGAT2 (hDGAT2) (Q96PD7 whole entry): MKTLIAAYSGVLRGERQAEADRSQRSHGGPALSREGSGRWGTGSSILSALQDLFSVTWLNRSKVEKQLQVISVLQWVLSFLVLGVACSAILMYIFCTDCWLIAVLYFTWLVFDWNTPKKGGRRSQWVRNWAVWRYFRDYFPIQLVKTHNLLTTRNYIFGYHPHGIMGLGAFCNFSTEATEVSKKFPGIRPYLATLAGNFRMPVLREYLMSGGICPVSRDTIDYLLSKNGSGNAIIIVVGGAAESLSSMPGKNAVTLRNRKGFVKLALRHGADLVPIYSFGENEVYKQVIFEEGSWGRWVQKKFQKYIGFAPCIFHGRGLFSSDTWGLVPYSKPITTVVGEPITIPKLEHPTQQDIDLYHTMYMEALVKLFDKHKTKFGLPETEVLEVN

The target in this assay is human DGAT2 (hDGAT2) (Homo sapiens (Human), UniProt Q96PD7). As to the kind of experiment: DGAT2 enzymatic activity assay (triolein formation, LC/MS/MS). Conditions: Sf-9 membrane prep expressing hDGAT2; 25 μM diolein, 10 μM oleoyl-CoA; triolein by LC/MS/MS. Type of assay: biochemical. The method, then:
Sf-9 insect cells were maintained in Grace's insect cell culture medium with 10% heated-inactivated fetal bovine serum, 1% Pluronic F-68 and 0.14 μg/ml Kanamycine sulfate in Erlenmeyer flasks at 28° C. in a shaker incubator. After infection with untagged baculovirus expressing human DGAT2 (hDGAT2) at multiplicity of infection (MOI) 0.1 for 48 hours, cells were harvested. Cell pellets were suspended in buffer containing 10 mM Tris-HCl (pH 7.5), 1 mM EDTA (pH 8.0), 250 mM sucrose and Complete Protease Inhibitor Cocktail (Roche Diagnostics Corp., Indianapolis, Ill.), and sonicated on ice. Membrane fractions were isolated by ultracentrifugation (100,000×g pellet), resuspended in the same buffer, and frozen (−80° C.) for later use. The protein concentration was determined with the BCA Protein Assay kit (Pierce Biotechnology Inc., Rockford, Ill.). Expression of protein levels was analyzed by immunoblotting with goat polyclonal DGAT2 antibody C-15 and donkey anti-goat IgG HRP (Santa Cruz Biotechnology, Inc., Santa Cruz, Calif.) followed by detection with ECL reagent (GE Healthcare, Piscataway, N.J.).
LC/MS/MS analyses were performed using Thermal Fisher's LX4-TSQ Vantage system. This system consists of an Agilent binary high-performance liquid chromatography (HPLC) pumps and a TSQ Vantage triple quadrupole MS/MS instrument. For each sample, 2 μL samples from the top organic layer of in-plate liquid-liquid extraction were injected onto a Thermo Betabasic C4 column (2.1 mm×20 mm, 5 μm particle size). The samples were then eluted using the following conditions; mobile phase: methanol/water with 0.1% ammonium format=92/8 (v/v), flow rate: 1 mL/min, temperature: 25 C. Data was acquired in positive mode using a heated electrospray ionization (HESI) interface. The operational parameters for the TSQ Vantage MS/MS instrument were a spray voltage of 3000 V, capillary temperature of 280° C., vaporizer temperature 400° C., shealth gas 60 arbitrary unit, Aux gas 40 arbitrary units, S-lens 113 and collision gas 0.16 Pascals. […] (SRM) chromatograms of triolein (Q1:902.9>Q3:602.3) and internal standard (Q1:902.9>Q3:602.3) were collected for 40 sec. The peak area was integrated by Xcalibur Quan software. The ratio between the triolein generated in the reaction and spiked in internal standard was used to generate percentage inhibition and IC50 values. Compound percentage inhibition was calculated by the following formula: Inhibition %/=1−[(compound response−low control)/(high control−low control)]×100%. Potent compounds were titrated and IC50 were calculated by 4 parameter sigmoidal curve fitting formula.
DGAT2 activity was determined by measuring the amount of enzymatic product triolein (1,2,3-Tri(cis-9-octadecenoyl)glycerol) using the membrane prep mentioned above. The assay was carried out in deep well 384 plates in a final volume of 40 μL at rt. The assay mixture contained the following: assay buffer (100 mM Tris.Cl, pH 7.0, 20 mM MgCl2, 5% ethanol), 25 μM of diolein, 10 μM of oleoyl-CoA and 10 ng/μL of DGAT2 membrane.
The term IC50 denotes the concentration that inhibits the measured activity by half. A higher IC50 goes with weaker potency. Compound `O=C(NC1CCS(=O)(=O)C1)c1ccc2c(-c3cccc(C4CC4)c3)cn(-c3ncc(F)cn3)c2c1` (single isomer, unassigned; enantiomer a) [Example 17-A, 3-(3-cyclopropylphenyl)-N-(1,1-dioxidotetrahydrothiophen-3-yl)-1-(5-fluoropyrimidin-2-yl)-1H-indole-6-carboxamide (enantiomer A)] registered a concentration for half-maximal inhibition (IC50) of 3.3 nM.

Take `Cc1cc(C)nc(-c2cn(-c3ccc(F)cc3)c3cc(C(=O)NC4CCS(=O)(=O)C4)ccc23)c1` (racemic) [Example 20, 3-(4,6-dimethylpyridin-2-yl)-N-(1,1-dioxidotetrahydrothiophen-3-yl)-1-(4-fluorophenyl)-1H-indole-6-carboxamide (racemic)]: the midpoint of inhibition, the IC50, lay at 802 nM.

For `Cc1cccc(-c2cn(-c3ccc(F)cc3)c3cc(C(=O)NC4CCS(=O)(=O)C4)ccc23)c1` (racemic) [Example 34, N-(1,1-dioxidotetrahydrothiophen-3-yl)-1-(4-fluorophenyl)-3-(3-methylphenyl)-1H-indole-6-carboxamide (racemic)], the half-maximal inhibitory concentration (IC50) stood at 13 nM.

For the compound `O=C(NC1CCS(=O)(=O)C1)c1ccc2c(-c3ccccn3)cn(-c3ccc(F)cc3)c2c1` (racemic) [Example 22, N-(1,1-dioxidotetrahydrothiophen-3-yl)-1-(4-fluorophenyl)-3-(pyridin-2-yl)-1H-indole-6-carboxamide (racemic)], inhibition was half-maximal at 664 nM (IC50).

Regarding `CC1(NC(=O)c2ccc3c(-c4cccc(OC(F)F)c4)cn(-c4ccc(F)cn4)c3c2)CCS(=O)(=O)C1` (single isomer, unassigned; enantiomer b) [Example 10-B, 3-(3-(difluoromethoxy)phenyl)-1-(5-fluoropyridin-2-yl)-N-(3-methyl-1,1-dioxidotetrahydrothiophen-3-yl)-1H-indole-6-carboxamide (enantiomer B)], the IC50 was found to be 1 nM.

With `Cc1ccnc(-c2cn(-c3ccc(F)cc3)c3cc(C(=O)NC4CCS(=O)(=O)C4)ccc23)c1` (racemic) [Example 23, N-(1,1-dioxidotetrahydrothiophen-3-yl)-1-(4-fluorophenyl)-3-(4-methylpyridin-2-yl)-1H-indole-6-carboxamide (racemic)], the IC50 came to 117 nM.

`O=C(NC1CCS(=O)(=O)C1)c1ccc2c(-c3cccc(C(F)(F)F)c3)cn(-c3ccc(F)cc3)c2c1` (racemic) [Example 30, N-(1,1-dioxidotetrahydrothiophen-3-yl)-1-(4-fluorophenyl)-3-[3-(trifluoromethyl)phenyl]-1H-indole-6-carboxamide (racemic)] yielded an IC50 of 18 nM.

`Cc1ccc(-c2cn(-c3ccc(F)cc3)c3cc(C(=O)NC4CCS(=O)(=O)C4)ccc23)cc1` (racemic) [Example 55, N-(1,1-dioxidotetrahydrothiophen-3-yl)-1-(4-fluorophenyl)-3-(4-methylphenyl)-1H-indole-6-carboxamide (racemic)] came in with a half-inhibitory concentration (IC50) of 696 nM.

Take `COc1ccccc1-c1cn(-c2ccc(F)cc2)c2cc(C(=O)NC3CCS(=O)(=O)C3)ccc12` (racemic) [Example 29, N-(1,1-dioxidotetrahydrothiophen-3-yl)-1-(4-fluorophenyl)-3-(2-methoxyphenyl)-1H-indole-6-carboxamide (racemic)]: it took 223 nM to reach half-maximal inhibition (IC50).

Consider `COc1cccc(-c2cn(-c3ccc(F)cc3)c3cc(C(=O)NC4CCS(=O)(=O)C4)ccc23)c1` (racemic) [Example 33, N-(1,1-dioxidotetrahydrothiophen-3-yl)-1-(4-fluorophenyl)-3-(3-methoxyphenyl)-1H-indole-6-carboxamide (racemic)], for which the IC50 was 4 nM.

`O=C(NC1CCS(=O)(=O)C1)c1ccc2c(-c3cccc(Cl)c3)cn(-c3ccc(F)cc3)c2c1` (racemic) [Example 31, 3-(3-chlorophenyl)-N-(1,1-dioxidotetrahydrothiophen-3-yl)-1-(4-fluorophenyl)-1H-indole-6-carboxamide (racemic)]: the midpoint of inhibition, the IC50, lay at 28 nM.

The compound `O=C(NC1CCS(=O)(=O)C1)c1ccc2c(-c3cccc(OC(F)F)c3)cn(-c3ccc(F)cc3)c2c1` (racemic) [Example 39, 3-[3-(difluoromethoxy)phenyl]-N-(1,1-dioxidotetrahydrothiophen-3-yl)-1-(4-fluorophenyl)-1H-indole-6-carboxamide (racemic)] showed a 50% inhibitory concentration (IC50) of 1.1 nM.

`O=C(NC1CCS(=O)(=O)C1)c1ccc2c(-c3cccc(C4CC4)c3)cn(-c3ccc(F)cc3)c2c1` (single isomer, unassigned; enantiomer a) [Example 26-A, 3-(3-Cyclopropylphenyl)-N-(1,1-dioxidotetrahydrothiophen-3-yl)-1-(4-fluorophenyl)-1H-indole-6-carboxamide (Enantiomer A)] yielded a 50% inhibitory concentration (IC50) of 2.9 nM.

Compound `O=C(NC1CCS(=O)(=O)C1)c1ccc2c(-c3ccc(-n4cccn4)cc3)cn(-c3ccc(F)cc3)c2c1` (racemic) [Example 56, N-(1,1-dioxidotetrahydrothiophen-3-yl)-1-(4-fluorophenyl)-3-[4-(1H-pyrazol-1-yl)phenyl]-1H-indole-6-carboxamide (racemic)] displayed a 50% inhibitory concentration (IC50) of 117 nM.

In turn, `CC1(NC(=O)c2ccc3c(-c4ccccc4Cl)c(C#N)n(-c4ccc(F)cc4)c3c2)CCS(=O)(=O)C1` (single isomer, unassigned; enantiomer a) [Example 9-A, 3-(2-chlorophenyl)-2-cyano-1-(4-fluorophenyl)-N-(3-methyl-1,1-dioxidotetrahydrothiophen-3-yl)-1H-indole-6-carboxamide (Enantiomer A)] returned a half-maximal inhibitory concentration (IC50) of 448 nM.

`O=C(NC1CCS(=O)(=O)C1)c1ccc2c(-c3cncnc3)cn(-c3ccc(F)cc3)c2c1` (racemic) [Example 50, N-(1,1-dioxidotetrahydrothiophen-3-yl)-1-(4-fluorophenyl)-3-pyrimidin-5-yl-1H-indole-6-carboxamide (racemic)]: the IC50 worked out at 321 nM.

Take `COC(=O)c1cc(-c2cn(-c3ccc(F)cc3)c3cc(C(=O)NC4CCS(=O)(=O)C4)ccc23)cs1` (racemic) [Example 60, methyl 4-{6-[(1,1-dioxidotetrahydrothiophen-3-yl)carbamoyl]-1-(4-fluorophenyl)-1H-indol-3-yl}thiophene-2-carboxylate (racemic)]: the 50% inhibitory concentration (IC50) was 175 nM.

Consider `CC1(NC(=O)c2ccc3c(-c4ccccc4Cl)cn(-c4ccc(F)cn4)c3c2)CCS(=O)(=O)C1` (single isomer, unassigned; enantiomer a) [Example 14-A, 3-(2-chlorophenyl)-1-(5-fluoropyridin-2-yl)-N-(3-methyl-1,1-dioxidotetrahydrothiophen-3-yl)-1H-indole-6-carboxamide (Enantiomer A, Fast)], for which the IC50 turned out to be 16 nM.

`CC1(NC(=O)c2ccc3c(-c4ccccc4Cl)cn(-c4ccc(F)cc4)c3c2)CCS(=O)(=O)C1` (single isomer, unassigned; enantiomer b) [Example 1-B, 3-(2-chlorophenyl)-1-(4-fluorophenyl)-N-(3-methyl-1,1-dioxidotetrahydrothiophen-3-yl)-1H-indole-6-carboxamide (Enantiomer B, slow)] returned a half-maximal inhibitory concentration (IC50) of 6.6 nM.

Regarding `O=C(NC1CCS(=O)(=O)C1)c1ccc2c(-c3cccc(C4CC4)c3)cn(-c3ccc(F)cn3)c2c1` (single isomer, unassigned; enantiomer a) [Example 11-A, 3-(3-cyclopropylphenyl)-N-(1,1-dioxidotetrahydrothiophen-3-yl)-1-(5-fluoropyridin-2-yl)-1H-indole-6-carboxamide (enantiomer A)], the IC50 was determined as 2.1 nM.
